Measurements: PubChem BioAssay (NCI)
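Method: 48-hour compound exposure of cells in 96-well plates, five concentrations, linear interpolation of endpoints. GI50 = concentration required for 50% inhibition of growth. TGI marks complete inhibition of growth.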

What was measured:
Test in all cases: growth of human tumour cells (NCI), 48 h
SK-MEL-5 melanoma = tested on: SK-MEL-5 melanoma
MALME-3M melanoma = tested on: MALME-3M melanoma
HCT-15 colon = tested on: HCT-15 colon
786-0 renal = tested on: 786-0 renal
SF-268 CNS = tested on: SF-268 CNS
HOP-62 NSCLC = tested on: HOP-62 NSCLC
KM12 colon = tested on: KM12 colon
MDA-MB-435 = tested on: MDA-MB-435
SF-539 CNS = tested on: SF-539 CNS
HT29 colon = tested on: HT29 colon
NCI-H226 lung = tested on: NCI-H226 lung
HCC-2998 colon = tested on: HCC-2998 colon
SK-MEL-28 melanoma = tested on: SK-MEL-28 melanoma
PC-3 prostate = tested on: PC-3 prostate
SNB-19 CNS = tested on: SNB-19 CNS
RXF 393 renal = tested on: RXF 393 renal
NCI-H23 lung = tested on: NCI-H23 lung
SNB-75 CNS = tested on: SNB-75 CNS
K-562 leukemia = tested on: K-562 leukemia
A498 renal = tested on: A498 renal
HOP-92 NSCLC = tested on: HOP-92 NSCLC
OVCAR-4 ovarian = tested on: OVCAR-4 ovarian
A549 NSCLC = tested on: A549 NSCLC
UACC-62 melanoma = tested on: UACC-62 melanoma
COLO 205 colon = tested on: COLO 205 colon
M14 melanoma = tested on: M14 melanoma
TK-10 renal = tested on: TK-10 renal
MOLT-4 leukemia = tested on: MOLT-4 leukemia
OVCAR-8 ovarian = tested on: OVCAR-8 ovarian
DU-145 prostate = tested on: DU-145 prostate
LOX IMVI melanoma = tested on: LOX IMVI melanoma
SK-MEL-2 melanoma = tested on: SK-MEL-2 melanoma
CAKI-1 renal = tested on: CAKI-1 renal
T-47D breast = tested on: T-47D breast
NCI/ADR-RES ovarian = tested on: NCI/ADR-RES ovarian
UACC-257 melanoma = tested on: UACC-257 melanoma
HCT-116 colon = tested on: HCT-116 colon
SN12C renal = tested on: SN12C renal
OVCAR-3 ovarian = tested on: OVCAR-3 ovarian
IGROV1 ovarian = tested on: IGROV1 ovarian
NCI-H522 lung = tested on: NCI-H522 lung
U251 CNS = tested on: U251 CNS
OVCAR-5 ovarian = tested on: OVCAR-5 ovarian
ACHN renal = tested on: ACHN renal
MDA-MB-231 breast = tested on: MDA-MB-231 breast
SR leukemia = tested on: SR leukemia
CCRF-CEM leukemia = tested on: CCRF-CEM leukemia
BT-549 breast = tested on: BT-549 breast
HL-60(TB) leukemia = tested on: HL-60(TB) leukemia
SW-620 colon = tested on: SW-620 colon
SF-295 CNS = tested on: SF-295 CNS
RPMI-8226 leukemia = tested on: RPMI-8226 leukemia
UO-31 renal = tested on: UO-31 renal

With `O=C1Nc2cc(-c3ccc(O)cc3)ccc2/C1=C/c1ccc[nH]1` the GI50 (SK-MEL-5 melanoma) was 412 nM, the TGI (SK-MEL-5 melanoma) was greater than 100000 nM and the GI50 (MALME-3M melanoma) was 474 nM. The TGI (MALME-3M melanoma) was 5280 nM, the GI50 (HCT-15 colon) was 45.1 nM and the TGI (HCT-15 colon) was greater than 35300 nM. The GI50 (786-0 renal) was 396 nM, the TGI (786-0 renal) was 4040 nM and the GI50 (SF-268 CNS) was 440 nM. For the same molecule, the TGI (SF-268 CNS) was greater than 100000 nM, the GI50 (HOP-62 NSCLC) was 559 nM and the TGI (HOP-62 NSCLC) was greater than 100000 nM. The GI50 (KM12 colon) was 247 nM, the TGI (KM12 colon) was greater than 100000 nM and the GI50 (MDA-MB-435) was 70.8 nM. It also gave a TGI (MDA-MB-435) greater than 100000 nM, a GI50 (SF-539 CNS) of 246 nM and a TGI (SF-539 CNS) of 1530 nM. For the same molecule, the GI50 (HT29 colon) was 979 nM, the TGI (HT29 colon) was greater than 33800 nM and the GI50 (NCI-H226 lung) was 673 nM. For the same molecule, the TGI (NCI-H226 lung) was greater than 100000 nM, the GI50 (HCC-2998 colon) was 511 nM and the TGI (HCC-2998 colon) was greater than 100000 nM. The GI50 (SK-MEL-28 melanoma) was 402 nM, the TGI (SK-MEL-28 melanoma) was greater than 100000 nM and the GI50 (PC-3 prostate) was 416 nM. It also gave a TGI (PC-3 prostate) greater than 25800 nM, a GI50 (SNB-19 CNS) of 1060 nM and a TGI (SNB-19 CNS) greater than 100000 nM. It also gave a GI50 (RXF 393 renal) of 826 nM, a TGI (RXF 393 renal) of 2450 nM and a GI50 (NCI-H23 lung) of 85.9 nM. For the same molecule, the TGI (NCI-H23 lung) was 2810 nM, the GI50 (SNB-75 CNS) was 2080 nM and the TGI (SNB-75 CNS) was 8350 nM. It also gave a GI50 (K-562 leukemia) of 33.5 nM, a TGI (K-562 leukemia) greater than 75900 nM and a GI50 (A498 renal) of 1530 nM. The TGI (A498 renal) was 5050 nM, the GI50 (HOP-92 NSCLC) was 1140 nM and the TGI (HOP-92 NSCLC) was 5120 nM. For the same molecule, the GI50 (OVCAR-4 ovarian) was 302 nM, the TGI (OVCAR-4 ovarian) was greater than 51300 nM and the GI50 (A549 NSCLC) was 484 nM. It also gave a TGI (A549 NSCLC) greater than 100000 nM, a GI50 (UACC-62 melanoma) of 49 nM and a TGI (UACC-62 melanoma) of 10900 nM. It also gave a GI50 (COLO 205 colon) of 2780 nM, a TGI (COLO 205 colon) of 12500 nM and a GI50 (M14 melanoma) of 97.4 nM. It also gave a TGI (M14 melanoma) greater than 100000 nM, a GI50 (TK-10 renal) of 418 nM and a TGI (TK-10 renal) greater than 71900 nM. The GI50 (MOLT-4 leukemia) was 158 nM, the TGI (MOLT-4 leukemia) was greater than 32500 nM and the GI50 (OVCAR-8 ovarian) was 524 nM. It also gave a TGI (OVCAR-8 ovarian) greater than 100000 nM, a GI50 (DU-145 prostate) of 815 nM and a TGI (DU-145 prostate) greater than 36400 nM. The GI50 (LOX IMVI melanoma) was 48.1 nM, the TGI (LOX IMVI melanoma) was 9770 nM and the GI50 (SK-MEL-2 melanoma) was 647 nM. For the same molecule, the TGI (SK-MEL-2 melanoma) was greater than 25700 nM, the GI50 (CAKI-1 renal) was 43.5 nM and the TGI (CAKI-1 renal) was 3590 nM. For the same molecule, the GI50 (T-47D breast) was 59.1 nM, the GI50 (NCI/ADR-RES ovarian) was 251 nM and the TGI (NCI/ADR-RES ovarian) was greater than 100000 nM. It also gave a GI50 (UACC-257 melanoma) of 743 nM, a TGI (UACC-257 melanoma) greater than 100000 nM and a GI50 (HCT-116 colon) of 115 nM. For the same molecule, the TGI (HCT-116 colon) was greater than 100000 nM, the GI50 (SN12C renal) was 609 nM and the TGI (SN12C renal) was greater than 100000 nM. It also gave a GI50 (OVCAR-3 ovarian) of 348 nM, a TGI (OVCAR-3 ovarian) of 3990 nM and a GI50 (IGROV1 ovarian) of 327 nM. The TGI (IGROV1 ovarian) was 7220 nM, the GI50 (NCI-H522 lung) was 258 nM and the TGI (NCI-H522 lung) was greater than 20100 nM. It also gave a GI50 (U251 CNS) of 526 nM, a TGI (U251 CNS) greater than 100000 nM and a GI50 (OVCAR-5 ovarian) of 588 nM. For the same molecule, the TGI (OVCAR-5 ovarian) was greater than 25000 nM, the GI50 (ACHN renal) was 50.4 nM and the TGI (ACHN renal) was 3600 nM. It also gave a GI50 (MDA-MB-231 breast) of 154 nM, a TGI (MDA-MB-231 breast) of 6660 nM and a GI50 (SR leukemia) of 30.9 nM. It also gave a TGI (SR leukemia) greater than 33700 nM, a GI50 (CCRF-CEM leukemia) of 154 nM and a TGI (CCRF-CEM leukemia) greater than 100000 nM. It also gave a GI50 (BT-549 breast) of 396 nM, a TGI (BT-549 breast) of 13300 nM and a GI50 (HL-60(TB) leukemia) of 228 nM. The GI50 (SW-620 colon) was 74.6 nM, the TGI (SW-620 colon) was greater than 100000 nM and the GI50 (SF-295 CNS) was 266 nM. For the same molecule, the TGI (SF-295 CNS) was greater than 40500 nM, the GI50 (RPMI-8226 leukemia) was 486 nM and the TGI (RPMI-8226 leukemia) was greater than 20300 nM. For the same molecule, the GI50 (UO-31 renal) was 130 nM and the TGI (UO-31 renal) was 2060 nM.
